According to paper PMC4979471 (Cell Death Discovery, 2015):
Like-named read-outs stand apart in the source and are kept apart here.

Experiments:
Experiment in all cases: Kinase selectivity, P33-radiolabeled assay
Format in all cases: biochemical
Conditions in all cases: 10 μM ATP
MAPKAPK2 = target: T1, MAPKAPK2 (Homo sapiens, UniProt P49137)
T1 construct: purchased Reaction Biology Corp
Outline: (§1)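 Percent residual kinase activity versus DMSO is reported. Conditions: compound at 10 μM, ATP at 10 μM, n = 2.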

CAMK1d = target: T2, CAMK1d (Homo sapiens, UniProt Q8IU85)
T2 construct: purchased Reaction Biology Corp
Outline: as §1

STK32C/YANK3 = target: T3, STK32C/YANK3 (Homo sapiens, UniProt Q86UX6)
T3 construct: purchased Reaction Biology Corp
Outline: as §1

ALK6/BMPR1B = target: T4, ALK6/BMPR1B (Homo sapiens, UniProt O00238)
T4 construct: purchased Reaction Biology Corp
Outline: as §1

MST2/STK3 = target: T5, MST2/STK3 (Homo sapiens, UniProt Q13188)
T5 construct: purchased Reaction Biology Corp
T5 sequence (Q13188 1-491): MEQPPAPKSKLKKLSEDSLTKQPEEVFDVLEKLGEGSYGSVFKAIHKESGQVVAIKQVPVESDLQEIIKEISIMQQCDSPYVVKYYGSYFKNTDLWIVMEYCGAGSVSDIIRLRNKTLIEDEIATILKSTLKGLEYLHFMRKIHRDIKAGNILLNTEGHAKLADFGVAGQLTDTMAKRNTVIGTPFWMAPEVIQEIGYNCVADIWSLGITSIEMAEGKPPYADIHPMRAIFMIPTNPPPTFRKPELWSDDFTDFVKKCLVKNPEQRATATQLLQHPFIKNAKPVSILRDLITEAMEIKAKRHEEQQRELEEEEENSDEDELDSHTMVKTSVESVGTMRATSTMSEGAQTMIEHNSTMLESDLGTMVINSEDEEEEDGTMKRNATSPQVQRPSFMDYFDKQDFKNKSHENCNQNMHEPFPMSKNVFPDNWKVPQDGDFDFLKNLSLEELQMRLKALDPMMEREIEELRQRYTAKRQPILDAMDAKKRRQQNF
Outline: as §1

TYK2 = target: T6, TYK2 (Homo sapiens, UniProt P29597)
T6 construct: purchased Reaction Biology Corp
Outline: as §1

ERK2/MAPK1 = target: T7, ERK2/MAPK1 (Homo sapiens, UniProt P28482)
T7 construct: purchased Reaction Biology Corp
Outline: as §1

PHKg2 = target: T8, PHKg2 (Homo sapiens, UniProt P15735)
T8 construct: purchased Reaction Biology Corp
T8 sequence (P15735 1-406): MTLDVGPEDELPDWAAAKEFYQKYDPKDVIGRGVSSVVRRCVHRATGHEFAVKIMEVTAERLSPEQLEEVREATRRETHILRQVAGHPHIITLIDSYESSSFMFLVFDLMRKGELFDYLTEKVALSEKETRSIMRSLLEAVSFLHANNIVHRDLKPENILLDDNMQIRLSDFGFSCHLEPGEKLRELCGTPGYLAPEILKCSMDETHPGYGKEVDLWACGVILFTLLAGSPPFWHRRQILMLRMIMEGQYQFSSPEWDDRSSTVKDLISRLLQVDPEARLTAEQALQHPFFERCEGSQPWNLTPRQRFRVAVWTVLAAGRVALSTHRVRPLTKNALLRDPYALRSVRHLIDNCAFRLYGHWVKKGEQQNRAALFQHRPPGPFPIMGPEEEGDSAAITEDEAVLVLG
Outline: as §1

IRR/INSRR = target: T9, IRR/INSRR (Homo sapiens, UniProt P14616)
T9 construct: purchased Reaction Biology Corp
Outline: as §1

STK38L/NDR2 = target: T10, STK38L/NDR2 (Homo sapiens, UniProt Q9Y2H1)
T10 construct: purchased Reaction Biology Corp
Outline: as §1

STK39/STLK3 = target: T11, STK39/STLK3 (Homo sapiens, UniProt Q9UEW8)
T11 construct: purchased Reaction Biology Corp
Outline: as §1

PKCeta = target: T12, PKCeta (Homo sapiens, UniProt P24723)
T12 construct: purchased Reaction Biology Corp
Outline: as §1

ZIPK/DAPK3 = target: T13, ZIPK/DAPK3 (Homo sapiens, UniProt O43293)
T13 construct: purchased Reaction Biology Corp
Outline: as §1

LIMK1 = target: T14, LIMK1 (Homo sapiens, UniProt P53667)
T14 construct: purchased Reaction Biology Corp
Outline: as §1

GSK3b = target: T15, GSK3b (Homo sapiens, UniProt P49841)
T15 construct: purchased Reaction Biology Corp
Outline: as §1

CK1epsilon = target: T16, CK1epsilon (Homo sapiens, UniProt P49674)
T16 construct: purchased Reaction Biology Corp
Outline: as §1

[1] = read-out: % Enzyme Activity (relative to DMSO controls) AVG
[2] = read-out: % Enzyme Activity (relative to DMSO controls) Data 1
[3] = read-out: % Enzyme Activity (relative to DMSO controls) Data 2

T1 sequence (P49137 whole entry): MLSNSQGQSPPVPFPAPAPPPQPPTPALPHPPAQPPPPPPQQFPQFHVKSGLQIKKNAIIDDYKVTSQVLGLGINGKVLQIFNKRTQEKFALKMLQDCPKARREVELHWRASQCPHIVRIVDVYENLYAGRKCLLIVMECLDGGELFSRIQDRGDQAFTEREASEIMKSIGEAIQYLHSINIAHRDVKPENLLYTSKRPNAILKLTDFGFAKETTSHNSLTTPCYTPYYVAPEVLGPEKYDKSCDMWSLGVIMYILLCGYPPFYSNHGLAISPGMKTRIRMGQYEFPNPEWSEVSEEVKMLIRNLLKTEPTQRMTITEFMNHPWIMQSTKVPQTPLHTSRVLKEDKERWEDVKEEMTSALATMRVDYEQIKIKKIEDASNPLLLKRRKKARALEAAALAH
T3 sequence (Q86UX6 whole entry): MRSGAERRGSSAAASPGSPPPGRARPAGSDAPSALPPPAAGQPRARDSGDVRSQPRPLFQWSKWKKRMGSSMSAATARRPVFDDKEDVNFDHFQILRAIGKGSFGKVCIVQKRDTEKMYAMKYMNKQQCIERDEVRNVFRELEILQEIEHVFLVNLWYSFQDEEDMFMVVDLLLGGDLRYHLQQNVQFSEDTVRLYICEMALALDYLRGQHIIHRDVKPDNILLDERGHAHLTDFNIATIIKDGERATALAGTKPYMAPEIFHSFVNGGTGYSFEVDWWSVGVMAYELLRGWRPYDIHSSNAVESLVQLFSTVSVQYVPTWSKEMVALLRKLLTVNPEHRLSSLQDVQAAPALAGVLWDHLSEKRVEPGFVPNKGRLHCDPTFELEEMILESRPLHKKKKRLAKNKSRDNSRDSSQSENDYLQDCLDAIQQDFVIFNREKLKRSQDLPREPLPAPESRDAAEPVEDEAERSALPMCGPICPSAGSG
T2 sequence (Q8IU85 whole entry): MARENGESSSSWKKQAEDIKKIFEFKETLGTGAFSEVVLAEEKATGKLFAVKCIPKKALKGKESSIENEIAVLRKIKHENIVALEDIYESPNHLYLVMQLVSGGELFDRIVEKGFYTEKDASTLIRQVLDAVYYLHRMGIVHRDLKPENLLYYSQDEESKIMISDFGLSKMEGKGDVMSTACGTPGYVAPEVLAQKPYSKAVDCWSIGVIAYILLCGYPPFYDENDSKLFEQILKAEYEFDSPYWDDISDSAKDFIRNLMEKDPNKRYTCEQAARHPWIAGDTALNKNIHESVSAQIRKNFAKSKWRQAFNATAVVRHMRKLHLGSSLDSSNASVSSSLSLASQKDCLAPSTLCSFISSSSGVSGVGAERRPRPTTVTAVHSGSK
T4 sequence (O00238 14-502): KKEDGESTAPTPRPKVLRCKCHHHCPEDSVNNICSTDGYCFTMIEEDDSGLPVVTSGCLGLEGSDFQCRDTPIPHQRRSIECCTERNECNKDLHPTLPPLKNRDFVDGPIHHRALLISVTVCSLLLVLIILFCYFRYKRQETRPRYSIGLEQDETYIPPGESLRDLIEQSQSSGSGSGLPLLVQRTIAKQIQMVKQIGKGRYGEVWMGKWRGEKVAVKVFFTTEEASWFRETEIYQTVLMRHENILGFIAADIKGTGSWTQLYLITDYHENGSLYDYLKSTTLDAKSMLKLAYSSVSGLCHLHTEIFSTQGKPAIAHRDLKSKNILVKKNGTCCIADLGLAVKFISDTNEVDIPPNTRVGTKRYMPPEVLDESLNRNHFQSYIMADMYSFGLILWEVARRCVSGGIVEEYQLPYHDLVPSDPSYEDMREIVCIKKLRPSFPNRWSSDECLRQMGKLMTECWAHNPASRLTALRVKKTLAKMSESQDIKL
T12 sequence (P24723 whole entry): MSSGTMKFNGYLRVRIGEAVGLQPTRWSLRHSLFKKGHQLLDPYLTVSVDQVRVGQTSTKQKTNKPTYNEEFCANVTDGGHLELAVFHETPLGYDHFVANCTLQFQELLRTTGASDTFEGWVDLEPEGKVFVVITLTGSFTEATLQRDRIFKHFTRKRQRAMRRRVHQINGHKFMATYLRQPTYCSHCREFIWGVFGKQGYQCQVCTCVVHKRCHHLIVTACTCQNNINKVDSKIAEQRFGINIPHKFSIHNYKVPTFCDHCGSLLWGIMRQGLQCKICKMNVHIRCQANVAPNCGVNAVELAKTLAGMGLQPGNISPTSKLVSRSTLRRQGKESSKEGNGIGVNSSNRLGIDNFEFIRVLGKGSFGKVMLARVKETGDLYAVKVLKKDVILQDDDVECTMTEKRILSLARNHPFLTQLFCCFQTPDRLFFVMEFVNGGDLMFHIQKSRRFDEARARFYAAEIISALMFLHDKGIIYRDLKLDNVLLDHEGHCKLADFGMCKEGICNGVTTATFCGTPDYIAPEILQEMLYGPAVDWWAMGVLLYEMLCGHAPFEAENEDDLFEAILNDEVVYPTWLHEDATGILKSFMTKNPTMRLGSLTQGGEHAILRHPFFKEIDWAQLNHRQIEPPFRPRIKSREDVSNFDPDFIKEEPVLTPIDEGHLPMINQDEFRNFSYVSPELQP
T15 sequence (P49841 whole entry): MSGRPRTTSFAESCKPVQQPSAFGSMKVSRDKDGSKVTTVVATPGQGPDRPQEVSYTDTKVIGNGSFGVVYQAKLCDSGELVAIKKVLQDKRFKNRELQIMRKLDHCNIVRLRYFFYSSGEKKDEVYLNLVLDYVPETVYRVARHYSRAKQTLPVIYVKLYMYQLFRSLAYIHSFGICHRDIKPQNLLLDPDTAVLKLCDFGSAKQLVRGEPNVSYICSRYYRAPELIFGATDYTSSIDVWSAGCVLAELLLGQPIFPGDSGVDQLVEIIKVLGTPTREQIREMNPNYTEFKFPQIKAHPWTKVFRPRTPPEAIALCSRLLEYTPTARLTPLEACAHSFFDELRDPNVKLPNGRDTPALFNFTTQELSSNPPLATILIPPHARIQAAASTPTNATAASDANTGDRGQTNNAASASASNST
T16 sequence (P49674 whole entry): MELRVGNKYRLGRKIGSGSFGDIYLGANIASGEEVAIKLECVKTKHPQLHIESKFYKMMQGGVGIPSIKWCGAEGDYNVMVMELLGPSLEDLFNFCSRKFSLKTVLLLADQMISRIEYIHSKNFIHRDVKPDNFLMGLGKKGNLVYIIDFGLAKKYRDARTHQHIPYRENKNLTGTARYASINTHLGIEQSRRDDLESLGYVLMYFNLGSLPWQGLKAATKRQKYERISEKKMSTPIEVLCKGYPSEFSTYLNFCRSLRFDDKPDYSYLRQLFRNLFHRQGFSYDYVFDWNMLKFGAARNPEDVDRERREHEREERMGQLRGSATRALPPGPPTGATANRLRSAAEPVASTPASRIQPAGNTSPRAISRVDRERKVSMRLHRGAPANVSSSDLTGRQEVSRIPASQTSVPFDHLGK
T13 sequence (O43293 whole entry): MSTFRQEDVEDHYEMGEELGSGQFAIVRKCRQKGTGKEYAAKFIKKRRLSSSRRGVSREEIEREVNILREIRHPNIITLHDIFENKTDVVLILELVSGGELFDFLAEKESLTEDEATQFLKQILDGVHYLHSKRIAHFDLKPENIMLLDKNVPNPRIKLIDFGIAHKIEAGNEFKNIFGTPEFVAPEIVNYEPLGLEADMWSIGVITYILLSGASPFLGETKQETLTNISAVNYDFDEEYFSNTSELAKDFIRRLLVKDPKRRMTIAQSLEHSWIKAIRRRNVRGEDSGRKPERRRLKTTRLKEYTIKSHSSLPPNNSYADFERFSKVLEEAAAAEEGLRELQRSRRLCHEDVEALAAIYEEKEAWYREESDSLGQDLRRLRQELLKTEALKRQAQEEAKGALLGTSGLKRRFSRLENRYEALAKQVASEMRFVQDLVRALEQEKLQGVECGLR
T10 sequence (Q9Y2H1 whole entry): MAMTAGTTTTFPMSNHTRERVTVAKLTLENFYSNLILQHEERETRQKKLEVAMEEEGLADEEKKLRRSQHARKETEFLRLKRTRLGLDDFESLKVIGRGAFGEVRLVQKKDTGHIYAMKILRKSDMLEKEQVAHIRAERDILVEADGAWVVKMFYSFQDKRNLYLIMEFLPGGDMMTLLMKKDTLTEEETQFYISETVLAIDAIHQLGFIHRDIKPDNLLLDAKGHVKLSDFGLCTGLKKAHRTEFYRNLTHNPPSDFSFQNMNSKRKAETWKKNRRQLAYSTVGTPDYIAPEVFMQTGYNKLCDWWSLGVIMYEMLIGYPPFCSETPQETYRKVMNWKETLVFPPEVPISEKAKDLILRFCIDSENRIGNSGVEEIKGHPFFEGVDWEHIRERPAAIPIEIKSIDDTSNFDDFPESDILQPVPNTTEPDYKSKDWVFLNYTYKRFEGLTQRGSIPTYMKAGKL
T14 sequence (P53667 whole entry): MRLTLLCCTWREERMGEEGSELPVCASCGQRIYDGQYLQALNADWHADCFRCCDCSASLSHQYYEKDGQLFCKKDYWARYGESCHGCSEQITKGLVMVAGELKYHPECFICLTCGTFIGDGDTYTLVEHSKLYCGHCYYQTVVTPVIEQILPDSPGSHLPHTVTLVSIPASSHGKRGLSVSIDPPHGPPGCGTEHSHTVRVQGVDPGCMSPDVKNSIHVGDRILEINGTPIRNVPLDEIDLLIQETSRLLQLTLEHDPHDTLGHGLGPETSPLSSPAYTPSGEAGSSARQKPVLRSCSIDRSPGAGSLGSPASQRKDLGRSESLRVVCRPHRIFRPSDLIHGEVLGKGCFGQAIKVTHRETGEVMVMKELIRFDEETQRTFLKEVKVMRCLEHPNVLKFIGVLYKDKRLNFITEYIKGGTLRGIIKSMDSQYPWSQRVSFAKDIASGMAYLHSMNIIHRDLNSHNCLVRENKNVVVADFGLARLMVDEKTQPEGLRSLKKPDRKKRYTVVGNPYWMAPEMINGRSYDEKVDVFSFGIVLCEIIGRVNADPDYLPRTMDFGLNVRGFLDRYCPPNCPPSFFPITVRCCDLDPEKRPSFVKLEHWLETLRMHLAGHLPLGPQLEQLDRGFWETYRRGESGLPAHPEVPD

Compound: CC(C)(C)C(=O)N1N=CC[C@H]1c1ccccc1 [GSK′963]
- remaining activity at 10 µM (MAPKAPK2; [1]): 112%
- remaining activity at 10 µM (MAPKAPK2; [2]): 115%
- remaining activity at 10 µM (MAPKAPK2; [3]): 109%
- remaining activity at 10 µM (CAMK1d; [1]): 90.2%
- remaining activity at 10 µM (CAMK1d; [2]): 88.6%
- remaining activity at 10 µM (CAMK1d; [3]): 91.8%
- remaining activity at 10 µM (STK32C/YANK3; [1]): 98.9%
- remaining activity at 10 µM (STK32C/YANK3; [2]): 97.5%
- remaining activity at 10 µM (STK32C/YANK3; [3]): 100%
- remaining activity at 10 µM (ALK6/BMPR1B; [1]): 90.5%
- remaining activity at 10 µM (ALK6/BMPR1B; [2]): 91%
- remaining activity at 10 µM (ALK6/BMPR1B; [3]): 90%
- remaining activity at 10 µM (MST2/STK3; [1]): 107%
- remaining activity at 10 µM (MST2/STK3; [2]): 105%
- remaining activity at 10 µM (MST2/STK3; [3]): 109%
- remaining activity at 10 µM (TYK2; [1]): 103%
- remaining activity at 10 µM (TYK2; [2]): 104%
- remaining activity at 10 µM (TYK2; [3]): 101%
- remaining activity at 10 µM (ERK2/MAPK1; [1]): 97.5%
- remaining activity at 10 µM (ERK2/MAPK1; [2]): 96.5%
- remaining activity at 10 µM (ERK2/MAPK1; [3]): 98.5%
- remaining activity at 10 µM (PHKg2; [1]): 110%
- remaining activity at 10 µM (PHKg2; [2]): 111%
- remaining activity at 10 µM (PHKg2; [3]): 110%
- remaining activity at 10 µM (IRR/INSRR; [1]): 75.3%
- remaining activity at 10 µM (IRR/INSRR; [2]): 72.8%
- remaining activity at 10 µM (IRR/INSRR; [3]): 77.7%
- remaining activity at 10 µM (STK38L/NDR2; [1]): 99.8%
- remaining activity at 10 µM (STK38L/NDR2; [2]): 101%
- remaining activity at 10 µM (STK38L/NDR2; [3]): 98.1%
- remaining activity at 10 µM (STK39/STLK3; [1]): 95.1%
- remaining activity at 10 µM (STK39/STLK3; [2]): 100%
- remaining activity at 10 µM (STK39/STLK3; [3]): 89.9%
- remaining activity at 10 µM (PKCeta; [1]): 113%
- remaining activity at 10 µM (PKCeta; [2]): 112%
- remaining activity at 10 µM (PKCeta; [3]): 114%
- remaining activity at 10 µM (ZIPK/DAPK3; [1]): 111%
- remaining activity at 10 µM (ZIPK/DAPK3; [2]): 118%
- remaining activity at 10 µM (ZIPK/DAPK3; [3]): 104%
- remaining activity at 10 µM (LIMK1; [1]): 113%
- remaining activity at 10 µM (LIMK1; [2]): 112%
- remaining activity at 10 µM (LIMK1; [3]): 114%
- remaining activity at 10 µM (GSK3b; [1]): 98.7%
- remaining activity at 10 µM (GSK3b; [2]): 98.8%
- remaining activity at 10 µM (GSK3b; [3]): 98.6%
- remaining activity at 10 µM (CK1epsilon; [1]): 93.4%
- remaining activity at 10 µM (CK1epsilon; [2]): 96.7%
- remaining activity at 10 µM (CK1epsilon; [3]): 90.2%
